In general, IC50 refers to the concentration that inhibits the measured activity by half. Broadly, the viability is a per cent measure of how many cells are alive, often set against a control.

For assay [1], the system named is EBC-1. In words: 5-day viability assay, single agent and combination (Chou-Talalay CI). Conditions: Homo sapiens, EBC-1, 120 h, read-out: IC50 (single agent), EBC-1; 120 h; average of two independent experiments.
Procedure: (§1) For assessment of synergistic activity, cells of each cell line were seeded at optimal density for growth onto different 96-well plates and placed into a humidified incubator (37° C., 5% CO2) to adhere overnight. The following day, the cells on each plate were treated either with a single agent (a PIKfyve inhibitor, e.g., apilimod, or a RAS pathway inhibitor) or with a combination of the two agents. Cells were treated for 120 hours and then assayed for cell viability using CellTiter-Glo™ (Promega).
(§2) Using this method, a CI value is calculated based on the effects of each drug alone on cell viability (single agent treatment) and the effects of each drug combination, across all combinations of both agents tested. The single agent treatments consisted of 8 different concentrations of each single agent, obtained by serial dilution. The concentrations were chosen to provide a range above and below the IC50 value of the single agent (if achieved) in a given cell line.
(§3) D1 alone and D2 alone were estimated from Hill's equation:
(§4) Here, we utilized cells harboring MET pathway activation, particularly the EBC-1, MKN45 and Caki-1 cell lines. In addition to MET inhibitors, since MET activates the RAS pathway, we also assayed for synergistic activity with inhibitors of the RAS pathway in these cells.
The test system of assay [2] is MKN45. The description is as above. The settings on record: Homo sapiens, MKN-45, 120 h, read-out: IC50 (single agent), MKN45; 120 h; average of two independent experiments.
Procedure: as §1, §2, §3, §4
The test system of assay [3] is RKO cells. As to the kind of experiment: CellTiter-Glo cell viability, single agent and combination (Chou-Talalay CI). Conditions: Homo sapiens; for IC50: 120 h, read-out: IC50 (single agent), RKO (colorectal, BRAF V600E), 120 h, average of two independent experiments.
Procedure: as §1, §2
In each experiment for a given cell line, the combination treatments consisted of 8×8 or 64 different combination treatments.
Using this method, combinations with CI values>1 are considered antagonistic, CI values=1 are considered additive, and CI values<1 are considered synergistic.
Assay [4] deals with GP5d. The description is as above. Type of assay: cell-based. Conditions: Homo sapiens, 120 h, GP5d (colorectal, KRAS G12D), average of two independent experiments.
Procedure: as §1, §2, §3
The test system of assay [5] is Caki-1. In words: 5-day viability assay, single agent and combination (Chou-Talalay CI). Conditions: Homo sapiens, CAKI-1, 120 h, read-out: IC50 (single agent).
Procedure: as §1, §2, §3, §4
For assay [6], the system named is A549. As to the kind of experiment: CellTiter-Glo cell viability, single agent and combination (Chou-Talalay CI). The settings on record: Homo sapiens, A549, 120 h, read-out: IC50 (single agent).
Procedure: (§5) For assessment of synergistic activity, cells of each cell line were seeded at optimal density for growth onto different 96-well plates and placed into a humidified incubator (37° C., 5% CO2) to adhere overnight. […] Cells were treated for 120 hours and then assayed for cell viability using CellTiter-Glo™ (Promega).
as §2
Assay [7] deals with HCT-15. The description is as above. It counts as cell-based. The settings on record: Homo sapiens, HCT-15, 120 h, HCT-15 (colorectal, KRAS G13D), average of two independent experiments.
Procedure: as §1, §2, §3
Assay [8] has as its system HT-29. Described as above. Conditions: Homo sapiens, HT-29, 120 h, HT-29 (colorectal, BRAF V600E), average of two independent experiments. It counts as cell-based.
Procedure: as §1, §2, §3
Assay [9] has as its system LS411N. The description is as above. It counts as cell-based. Conditions: Homo sapiens, LS-411N, 120 h, LS411N (colorectal, BRAF V600E), average of two independent experiments.
Procedure: as §1, §2, §3
For assay [10], the system named is NCI-H1792. Described as above. Conditions: Homo sapiens, NCI-H1792, 120 h, read-out: IC50 (single agent).
Procedure: as §5, §2
Assay [11] deals with A375. The description is as above. Conditions: Homo sapiens, A-375, 120 h, read-out: IC50 (single agent).
Procedure: as §5, §2
The mark [12] stands for this setting: read-out: Viability (normalized).

In the case of `COCCOc1cnc2ccn([C@H](C)c3nnc4c(F)cc(-c5cnn(C)c5)cn34)c(=O)c2c1` [AMG 337], the half-inhibitory concentration (IC50) in assay [1] turned out to be 4 nM; in assay [2], 7 nM.
For `Cc1cccc(/C=N/Nc2cc(N3CCOCC3)n3nc(-c4ccncc4)cc3n2)c1` [APY-0201], in that order: 171 nM and 269 nM.
Turning to `CC(C)Nc1cc(-c2c[nH]c(C(=O)N[C@H](CO)c3cccc(Cl)c3)c2)c(Cl)cn1` [BVD-523], the IC50 in assay [1] came out at 866 nM; in assay [2] it was 433 nM; in [3], 945 nM.
Regarding `Cn1cnc2c(F)c(Nc3ccc(Br)cc3F)c(C(=O)NOCCO)cc21` [Binimetinib, binimetinib], the IC50 in [4] is > 5000 nM; in assay [1], 75 nM; in assay [2] it was 533 nM.
Turning to `COc1cc2nccc(Oc3ccc(NC(=O)C4(C(=O)Nc5ccc(F)cc5)CC4)cc3)c2cc1OC` [Cabozantinib, cabozantinib], the IC50 in [1] amounted to 28 nM; in assay [2], 67 nM.
Consider `CNC(=O)c1ccc(-c2cnc3ncc(Cc4ccc5ncccc5c4)n3n2)cc1F` [Capmatinib, capmatinib], for which the IC50 in assay [1] was found to be 0.7 nM; in [2] it was 1.5 nM.
Regarding `O=C(c1ccc(F)c(F)c1Nc1ccc(I)cc1F)N1CC(O)([C@@H]2CCCCN2)C1` [Cobimetinib, cobimetinib], the half-maximal inhibitory concentration (IC50) is > 5000 nM in [4]; 136 nM in assay [1]; 194 nM in [2]; > 5000 nM in assay [5]; 403 nM in assay [6].
Turning to `C[C@@H](Oc1cc(-c2cnn(C3CCNCC3)c2)cnc1N)c1c(Cl)ccc(F)c1Cl` [Crizotinib, crizotinib], the IC50 in assay [1] worked out at 10 nM; in [2], 13 nM.
With `Cn1nccc1Nc1nccc(-c2ccn([C@H](CO)c3ccc(Cl)c(F)c3)c(=O)c2)n1` [GDC-0994], the 50% inhibitory concentration (IC50) in [1] turned out to be 4150 nM; in [2] it was 5330 nM.
On to `CNC(=O)c1cc(Oc2ccc(NC(=O)Nc3ccc(Cl)c(C(F)(F)F)c3)c(F)c2)ccn1` [Regorafenib, regorafenib], for which the half-inhibitory concentration (IC50) was found to be 7050 nM in assay [7]; 6510 nM in assay [8]; 5960 nM in [5]; 6380 nM in assay [6]; 4920 nM in assay [3].
Regarding `C[C@@H](c1ccc2nccn2c1)n1nnc2ncc(-c3cnn(C)c3)nc21` [Savolitinib, savolitinib], the figures for the IC50 in assay [1] and in assay [2] were 1.5 nM and 3 nM, respectively.
In the case of `Cn1cnc2c(F)c(Nc3ccc(Br)cc3Cl)c(C(=O)NOCCO)cc21` [Selumetinib, selumetinib], in assay [9], the half-maximal inhibitory concentration (IC50) was 46 nM. Further, in [1], the IC50 was 160 nM. Besides, the concentration for half-maximal inhibition (IC50) in assay [2] was found to be 1110 nM. The IC50 in assay [3] was determined as 3510 nM. Moreover, in assay [3] (setting [12]), the viability at 0.078 µM is 78%, the viability at 0.125 µM worked out at 78%, the viability at 0.313 µM was found to be 71% and the viability at 0.625 µM amounted to 74%. Further, in assay [3] (setting [12]), the viability at 1.25 µM stood at 64%, the viability at 2.5 µM is 53%, the viability at 5 µM worked out at 46% and the viability at 100 µM is 32%.
For `CN1CCC(COc2cnc(-c3cccc(Cn4nc(-c5cccc(C#N)c5)ccc4=O)c3)nc2)CC1` [Tepotinib, tepotinib], the values for the 50% inhibitory concentration (IC50) in [1] and in [2] were 13 nM and 16 nM, respectively.
For the compound `CC(=O)Nc1cccc(-n2c(=O)n(C3CC3)c(=O)c3c(Nc4ccc(I)cc4F)n(C)c(=O)c(C)c32)c1` [Trametinib, trametinib], the half-maximal inhibitory concentration (IC50) in assay [4] is > 5000 nM; in assay [9] it was 1 nM; in assay [8], 3 nM; in assay [1] it was 10 nM; in assay [2], 18 nM; in [5], 47 nM. Also, the half-inhibitory concentration (IC50) in assay [6] is 17 nM; in assay [10] it was 33 nM; in assay [3], 32 nM; in [11] it was 2 nM.
Regarding `CCCS(=O)(=O)Nc1ccc(F)c(C(=O)c2c[nH]c3ncc(-c4ccc(Cl)cc4)cc23)c1F` [Vemurafenib, vemurafenib], the half-inhibitory concentration (IC50) in [9] is 350 nM; in assay [7], > 10000 nM; in [8], 2470 nM; in assay [3], 7120 nM.
